Experimental data as given in patent US20220016060A1, “USE OF SODIUM 2-(3-PENTYLPHENYL)ACETATE IN THE TREATMENT OF ALSTRÖM SYNDROME” (LIMINAL BIOSCIENCES LIMITED, priority 2018, published 2022).
Where “and” joins values, the source holds several entries; their conditions need not be identical. Equal values may be shown once.

Tests used:
Assay type in all cases: in vivo, human
[1] = tested on: ALMS patients; experiment: Cardiac MRI of left ventricular function (LVESV, LVEDV); conditions: for Change from Baseline LVEDV, Mean (SD) / Change from Baseline LVEDV, Median / Change from Baseline LVESV, Mean (SD) / Change from Baseline LVESV, Median: 800 mg daily oral
Protocol: (§1) The study was a Phase 2, single-centre, single-arm, open-label study of sodium 2-(3-pentylphenyl)acetate administered at a total daily oral dose of 800 mg for up to 72 weeks in subjects with ALMS was undertaken. The initial duration of the study was 24 weeks, and subjects were offered to enrol into an extension phase of 36 or 48 weeks. The schedule of study procedures for the enrolment, intervention, and assessments for participants is outlined in FIG. 1.
Sodium 2-(3-pentylphenyl)acetate was formulated in soft gelatine capsules containing 200 mg of Sodium 2-(3-pentylphenyl)acetate (amorphous powder) per capsule, polyethylene glycol 400, National Formulary (NF), hydrochloric acid (for pH adjustment), and water.
The effect of sodium 2-(3-pentylphenyl)acetate on heart histology in ALMS patients was assessed by measuring left ventricular function (LVF). LVF measurements permit to quantify how well the left ventricle is able to pump blood through the body with each heartbeat, and is also a prognostic factor in acute myocardial infarction.

[2] = tested on: ALMS patients; experiment: Glycated hemoglobin (HbA1c); conditions: for Change from Baseline HbA1c, Mean / Change from Baseline HbA1c, Median / HbA1c: 800 mg daily oral; for HbA1c: individual subjects
Protocol: The study was a Phase 2, single-centre, single-arm, open-label study of sodium 2-(3-pentylphenyl)acetate administered at a total daily oral dose of 800 mg for up to 72 weeks in subjects with ALMS was undertaken. The initial duration of the study was 24 weeks, and subjects were offered to enrol into an extension phase of 36 or 48 weeks. The schedule of study procedures for the enrolment, intervention, and assessments for participants is outlined in FIG. 1. Sodium 2-(3-pentylphenyl)acetate was formulated in soft gelatine capsules containing 200 mg of Sodium 2-(3-pentylphenyl)acetate (amorphous powder) per capsule, polyethylene glycol 400, National Formulary (NF), hydrochloric acid (for pH adjustment), and water. Glycated hemoglobin (HbA1c) is measured primarily to determine the three-month average blood sugar level, and is used as a diagnostic test for diabetes mellitus and as an assessment test for glycemic control in people with diabetes. HbA1c was assessed in ALMS patients treated with sodium 2-(3-pentylphenyl)acetate. There was a statistically significant mean decrease of 0.53% (p=0.0144) in HbA1c from baseline after 12 weeks of treatment (Table 16).

[3] = tested on: ALMS patients; experiment: C-peptide; conditions: for Change from Baseline C-Peptide, Mean / Change from Baseline C-Peptide, Median: 800 mg daily oral
Protocol: as §1, with “1. Sodium 2-(3-pentylphenyl)acetate was formulated in soft gelatine capsules containing 200 mg of Sodium 2-(3-pentylphenyl)acetate (amorphous powder) per capsule, polyethylene glycol 400, National Formulary (NF), hydrochloric acid (for pH adjustment), and water.” for “1.”

[4] = tested on: ALMS patients; experiment: HOMA-B based on C-peptide and fasting plasma glucose; conditions: for Change from Baseline HOMA-B Based on C-Peptide and FPG, Mean / Change from Baseline HOMA-B Based on C-Peptide and FPG, Median: 800 mg
Protocol: The study was a Phase 2, single-centre, single-arm, open-label study of sodium 2-(3-pentylphenyl)acetate administered at a total daily oral dose of 800 mg for up to 72 weeks in subjects with ALMS was undertaken. The initial duration of the study was 24 weeks, and subjects were offered to enrol into an extension phase of 36 or 48 weeks. The schedule of study procedures for the enrolment, intervention, and assessments for participants is outlined in FIG. 1. Sodium 2-(3-pentylphenyl)acetate was formulated in soft gelatine capsules containing 200 mg of Sodium 2-(3-pentylphenyl)acetate (amorphous powder) per capsule, polyethylene glycol 400, National Formulary (NF), hydrochloric acid (for pH adjustment), and water. E) Homeostasis Model Assessment for Steady State Beta-Cell Function Based on C-Peptide and Fasting Plasma Glucose (HOMA-B [C-Peptide/FPG]) The effect of sodium 2-(3-pentylphenyl)acetate on HOMA-B (C-peptide/FPG) was assessed, and the results are presented in Table 24.

[5] = Subject 826-001-001, 204-day break in treatment
[6] = Subject 826-001-007, 32-day break in treatment

## CCCCCc1cccc(CC(=O)[O-])c1.[Na+] [sodium 2-(3-pentylphenyl)acetate]
[1]; 9/12 subjects
  subjects in whom LVESV increased or did not change from baseline: 75.0%
[1]; 10/12 subjects
  subjects in whom LVEDV increased from baseline: 83.3%
[1]; EP Week 36 (Week 60), N=4
  Change from Baseline LVEDV, Mean (SD): 7.75 (3.948) mL
  Change from Baseline LVEDV, Median: 8.50 mL
  Change from Baseline LVESV, Mean (SD): 3.75 (2.500) mL
  Change from Baseline LVESV, Median: 3.50 mL
[1]; Week 24, N=10
  Change from Baseline LVEDV, Mean (SD): 4.40 (16.574) mL
  Change from Baseline LVEDV, Median: 5.00 mL
  Change from Baseline LVESV, Mean (SD): 0.70 (9.650) mL
  Change from Baseline LVESV, Median: 3.00 mL
[1]; after 60 weeks of treatment
  change in LVESV from baseline: strong trend toward an increase
[1]; after 60 weeks of treatment, p=0.0294
  mean increase in LVEDV from baseline: 7.75 mL
[1]; subject 826-001-015
  LVESV relative to normal range: Normalization of LVESV after treatment
[1]; subjects 826-001-002 and 826-001-004, below normal at baseline
  LVEDV and LVESV relative to normal range: within the normal range after the treatment period
[2]; 8/12 subjects
  subjects in whom HbA1c decreased or did not change from baseline: 66.7%
[2]; EP Week 12 (Week 36), N=10
  Change from Baseline HbA1c, Mean: 0.24%
  Change from Baseline HbA1c, Median: 0.00%
[2]; EP Week 24 (Week 48), N=10
  Change from Baseline HbA1c, Mean: −0.28%
  Change from Baseline HbA1c, Median: −0.30%
[2]; EP Week 36 (Week 60), N=9
  Change from Baseline HbA1c, Mean: −0.18%
  Change from Baseline HbA1c, Median: −0.10%
[2]; EP Week 48 (Week 72), N=3
  Change from Baseline HbA1c, Mean: 0.13%
  Change from Baseline HbA1c, Median: 0.10%
[2]; [5]
  HbA1c increase above baseline by the last study visit: 1%
[2]; Subjects 826-001-007, 826-001-009 and 826-001-014
  HbA1c reduction below baseline: 1%
[2]; Week 12, N=12
  Change from Baseline HbA1c, Mean: −0.53%
  Change from Baseline HbA1c, Median: −0.55%
[2]; Week 24, N=12
  Change from Baseline HbA1c, Mean: −0.24%
  Change from Baseline HbA1c, Median: −0.05%
[2]; after 12 weeks of treatment, p=0.0144
  mean decrease in HbA1c from baseline: 0.53%
[2]; EP Week 12 (Week 36)
  HbA1c: 12.7% and 5.1% and 5.4% (3×) and 7.5% and 7.3% and 6.4% and 6.2% and 12%
[2]; EP Week 24 (Week 48)
  HbA1c: 10.6% (2×) and 4.9% and 4.7% and 5.7% and 6.8% and 5.4% and 6.5% and 6.3% and 6.7%
[2]; EP Week 36 (Week 60)
  HbA1c: 11.2% and 5.1% and 5.0% and 7.5% and 5.4% and 6.8% (2×) and 6.4% and 9.1%
[2]; EP Week 48 (Week 72)
  HbA1c: 11.1% and 5.0% and 4.9%
[2]; Week 12
  HbA1c: 10.1% and 5.3% and 5.0% and 5.7% (2×) and 8.2% and 5.5% and 6.7% and 6.1% and 10.6% and 6.4% and 6.5%
[2]; Week 24
  HbA1c: 11.1% and 5.4% (2×) and 4.8% and 5.6% and 9.1% and 7.0% and 6.2% and 10.0% and 6.6% and 8.6% and 6.1%
[3]; EP Week 12 (Week 36), N=10
  Change from Baseline C-Peptide, Mean: -350.90 pmol/L
  Change from Baseline C-Peptide, Median: 6.00 pmol/L
[3]; EP Week 24 (Week 48), N=9
  Change from Baseline C-Peptide, Mean: -286.67 pmol/L
  Change from Baseline C-Peptide, Median: -40.00 pmol/L
[3]; EP Week 36 (Week 60), N=8
  Change from Baseline C-Peptide, Mean: 219.88 pmol/L
  Change from Baseline C-Peptide, Median: -31.00 pmol/L
[3]; EP Week 48 (Week 72), N=3
  Change from Baseline C-Peptide, Mean: 810.00 pmol/L
  Change from Baseline C-Peptide, Median: 737.00 pmol/L
[3]; [5]
  increase in C-peptide from baseline: 817 pmol/L
[3]; Subject 826-001-004, 30-day break in treatment
  increase in C-peptide from baseline: 1.757e+06 pmol/L
[3]; Subject 826-001-005, 39-day break in treatment
  increase in C-peptide from baseline: 737 pmol/L
[3]; [6]
  increase in C-peptide from baseline: 3580 pmol/L
[3]; Week 12, N=12
  Change from Baseline C-Peptide, Mean: 473.50 pmol/L
  Change from Baseline C-Peptide, Median: 102.50 pmol/L
[3]; Week 24, N=12
  Change from Baseline C-Peptide, Mean: 41.25 pmol/L
  Change from Baseline C-Peptide, Median: 84.50 pmol/L
[4]; EP Week 12 (Week 36), N 10
  Change from Baseline HOMA-B Based on C-Peptide and FPG, Mean: 1.70
  Change from Baseline HOMA-B Based on C-Peptide and FPG, Median: 16.50
[4]; EP Week 24 (Week 48), N 9
  Change from Baseline HOMA-B Based on C-Peptide and FPG, Mean: 24.57
  Change from Baseline HOMA-B Based on C-Peptide and FPG, Median: −1.90
[4]; EP Week 36 (Week 60), N 8
  Change from Baseline HOMA-B Based on C-Peptide and FPG, Mean: 1.42
  Change from Baseline HOMA-B Based on C-Peptide and FPG, Median: 8.00
[4]; EP Week 48 (Week 72), N 3
  Change from Baseline HOMA-B Based on C-Peptide and FPG, Mean: 60.17
  Change from Baseline HOMA-B Based on C-Peptide and FPG, Median: 89.40
[4]; Week 12, N 11
  Change from Baseline HOMA-B Based on C-Peptide and FPG, Mean: 52.58
  Change from Baseline HOMA-B Based on C-Peptide and FPG, Median: 35.60
[4]; Week 24, N 12
  Change from Baseline HOMA-B Based on C-Peptide and FPG, Mean: −1.60
  Change from Baseline HOMA-B Based on C-Peptide and FPG, Median: 0.60
[4]; 9/12 subjects
  subjects in whom HOMA-B (C-peptide/FPG) increased from baseline: 75.0%
[4]; [5]
  reduction in HOMA-B (C-peptide/FPG): 62.4
[4]; [6]
  reduction in HOMA-B (C-peptide/FPG): 33.4
[4]; Subject 826-001-013, 30-day break in treatment
  reduction in HOMA-B (C-peptide/FPG): 96.7
